Reference: ChEMBL document CHEMBL1201862, “PubChem BioAssay data set” (2004)
Activity calls are given as the source filed them.

What was measured:
HEK293 [1] = assay: cells; type: functional, cell-based; settings: Homo sapiens
[2] = biological target: T1, Nuclear receptor subfamily 0 group B member 1 (Homo sapiens, UniProt P51843); assay: Luminescence-based cell-based high throughput dose response assay for inhibitors of the orphan nuclear receptor subfamily 0, group B, member 1 (DAX1; NR0B1). [Related pubchem assays (depositor defined):AID504766, AID504790]; type: functional
T1 sequence (P51843 whole entry): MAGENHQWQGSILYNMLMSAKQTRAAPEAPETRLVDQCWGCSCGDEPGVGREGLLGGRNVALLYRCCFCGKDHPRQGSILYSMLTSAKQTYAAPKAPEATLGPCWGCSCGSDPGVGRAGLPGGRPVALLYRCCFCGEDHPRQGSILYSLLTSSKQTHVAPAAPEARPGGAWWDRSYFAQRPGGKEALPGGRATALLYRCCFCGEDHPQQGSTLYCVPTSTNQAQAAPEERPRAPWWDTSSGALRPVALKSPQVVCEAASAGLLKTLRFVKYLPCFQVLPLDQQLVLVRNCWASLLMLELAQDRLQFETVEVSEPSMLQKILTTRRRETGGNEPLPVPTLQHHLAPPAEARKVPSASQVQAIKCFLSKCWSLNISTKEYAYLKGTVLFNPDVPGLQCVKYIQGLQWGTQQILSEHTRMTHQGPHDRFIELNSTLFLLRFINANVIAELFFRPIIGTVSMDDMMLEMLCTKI

[3] = MIN6 cell viability loss – mouse insulinoma, cytotoxicity control, dose response (AID 2122); type: functional;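 further: confirmatory high-throughput counterscreen run to flag cytotoxic compounds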
[4] = biological target: T2, Latent membrane protein 1 (Human herpesvirus 4 (strain B95-8), UniProt P03230); assay: LMP1 TES1 pathway selectivity over dsRED control – imaging, HEK293T, dual-color eGFP/dsRED, cherry-picks, selectivity assay for LMP1 NF-kB inhibitor project, dose response (AID 588398); type: functional, cell-based
T2 sequence (P03230 whole entry): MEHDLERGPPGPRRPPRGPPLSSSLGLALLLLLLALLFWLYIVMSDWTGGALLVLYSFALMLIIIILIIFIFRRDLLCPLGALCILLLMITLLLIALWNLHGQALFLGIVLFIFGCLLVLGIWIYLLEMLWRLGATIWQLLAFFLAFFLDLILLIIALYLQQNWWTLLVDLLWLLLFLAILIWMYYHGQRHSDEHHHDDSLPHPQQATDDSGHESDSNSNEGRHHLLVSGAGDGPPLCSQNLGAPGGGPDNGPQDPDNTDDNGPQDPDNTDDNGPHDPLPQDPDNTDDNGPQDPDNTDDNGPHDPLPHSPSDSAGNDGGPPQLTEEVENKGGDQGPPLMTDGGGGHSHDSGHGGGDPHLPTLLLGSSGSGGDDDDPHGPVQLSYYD

[5] = NIH3T3 cell viability loss – ATP luminescence, mouse fibroblasts, counter-screen, dose response (AID 2010); type: functional, cell-based;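 further: cells exposed to compound for about 90 hours before reading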
cells [6] = type: functional, cell-based
[7] = alpha-synuclein stem-loop luciferase translation blockers – H4 neuroglioma cells, luminescence, confirmation (AID 1988); type: functional, cell-based
cells [8] = type: functional, cell-based; remark: listed apart in the source
[9] = luciferase reporter signal suppression in cells – H4 neuroglioma cells, luminescence, dose response (AID 1990); type: functional, cell-based
[10] = Trypanosoma cruzi growth suppression in host cells – NIH3T3 host cells, beta-gal luminescence, confirmation (AID 2044); type: functional, cell-based;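 further: intracellular parasites grown in NIH/3T3 mouse fibroblasts as host cells; luminescent beta-galactosidase reporter signal from transgenic T. cruzi replicating inside host cells; inhibitors lower the luminescence signal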
[11] = biological target: Heat shock protein HSP 90-alpha (Homo sapiens, UniProt P07900); type: functional, organism-based
HEK293 [12] = assay: EBV LMP1 TES2 canonical NF-kB signalling blockers – cell-based, HEK293, luciferase, cherry-pick, dose response (AID 588343); type: functional; settings: Homo sapiens
[13] = Luminescence Cell-Based Dose Response HTS to Identify Inhibitors of 5'UTR Stem-Loop Driven Prion Protein mRNA Translation in H4 Neuroglioblastoma Cells. [Related pubchem assays: 1827 (Project Summary), 1813 (Primary HTS)]; type: functional
[14] = decrease of insulin promoter-GFP reporter – imaging, high-content screening, mouse beta cells (AID 1628); type: functional; settings: MIN6
A-375 [15] = assay: proliferation inhibition in MITF-low A375 cells – cell-based, cherry-pick samples, set 2, counter-screen for MITF modulator project, dose response (AID 540335); type: functional; settings: Homo sapiens
A-375 [16] = assay: MITF: Counter assay: A375 proliferation Measured in Cell-Based System Using Plate Reader - 2084-03_Inhibitor_Dose_DryPowder_Activity. [Related pubchem assays (depositor defined):AID488944]; type: functional; settings: Homo sapiens
[17] = biological target: Voltage-gated inwardly rectifying potassium channel KCNH2 (Homo sapiens, UniProt Q12809); settings: Potency;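 further: confirmatory quantitative high-throughput screen measuring inhibition of hERG channel activity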
Trypsin = Trypsin (Sus scrofa, UniProt P00761); assay: trypsin protease activity blockade – biochemical, quenched peptide fluorescence, cherry-pick, selectivity assay for Rce1 protease inhibitor project, dose response (AID 488789)
CAAX prenyl protease 2 [18] = biological target: CAAX prenyl protease 2 (Homo sapiens, UniProt Q9Y256); assay: inhibition of Ras-converting CAAX protease Rce1 – biochemical, yeast membranes, quenched-peptide fluorescence, cherry-pick, dose response (AID 588849)
CAAX prenyl protease 2 [19] = biological target: T3, CAAX prenyl protease 2 (Saccharomyces cerevisiae S288c, UniProt Q03530); type: biochemical
T3 sequence (Q03530 whole entry): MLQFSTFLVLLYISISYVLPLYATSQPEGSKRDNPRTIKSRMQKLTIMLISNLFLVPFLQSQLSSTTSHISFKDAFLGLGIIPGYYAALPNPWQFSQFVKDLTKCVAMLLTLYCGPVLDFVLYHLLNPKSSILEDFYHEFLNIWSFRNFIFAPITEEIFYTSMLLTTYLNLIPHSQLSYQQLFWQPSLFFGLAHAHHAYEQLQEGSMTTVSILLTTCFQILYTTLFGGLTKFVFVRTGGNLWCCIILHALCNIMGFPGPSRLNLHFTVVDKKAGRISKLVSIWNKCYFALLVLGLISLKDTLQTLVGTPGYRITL

Beta-galactosidase = Beta-galactosidase (Escherichia coli, UniProt Q8VNN2); assay: PubChem AID 485352; type: functional
[20] = biological target: T4, Type-1 angiotensin II receptor (Homo sapiens, UniProt P30556); assay: antagonism of angiotensin II type 1 receptor – cell-based, uHTS hits, selectivity assay for APJ receptor antagonist project, dose response (AID 463214); type: functional;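 further: antagonist potency against angiotensin II stimulated AT1 response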
T4 sequence (P30556 whole entry): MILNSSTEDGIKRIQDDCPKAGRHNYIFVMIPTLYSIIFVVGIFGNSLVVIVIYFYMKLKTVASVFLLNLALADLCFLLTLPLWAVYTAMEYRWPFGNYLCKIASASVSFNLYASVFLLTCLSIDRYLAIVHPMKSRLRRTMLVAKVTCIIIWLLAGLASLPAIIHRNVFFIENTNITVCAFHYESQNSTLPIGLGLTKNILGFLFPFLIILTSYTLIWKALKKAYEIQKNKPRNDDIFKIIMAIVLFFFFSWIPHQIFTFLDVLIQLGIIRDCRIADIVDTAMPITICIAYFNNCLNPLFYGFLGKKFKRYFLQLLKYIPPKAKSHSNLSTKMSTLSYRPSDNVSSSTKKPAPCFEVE

Cysteine protease ATG4B = Cysteine protease ATG4B (Homo sapiens, UniProt Q9Y4P1); type: functional;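 further: Fluorescence-based dose-response confirmation assay measuring inhibition of ATG4B activity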
[21] = biological target: T5, Short transient receptor potential channel 4 (Mus musculus, UniProt Q9QUQ5); assay: block of DAMGO-driven TRPC4 calcium entry – cell-based, HEK293 TRPC4/mu-opioid, Fluo-4 calcium, dose response (AID 434942); type: functional;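 further: potency of inhibitors blocking the TRPC4 calcium response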
T5 sequence (Q9QUQ5 whole entry): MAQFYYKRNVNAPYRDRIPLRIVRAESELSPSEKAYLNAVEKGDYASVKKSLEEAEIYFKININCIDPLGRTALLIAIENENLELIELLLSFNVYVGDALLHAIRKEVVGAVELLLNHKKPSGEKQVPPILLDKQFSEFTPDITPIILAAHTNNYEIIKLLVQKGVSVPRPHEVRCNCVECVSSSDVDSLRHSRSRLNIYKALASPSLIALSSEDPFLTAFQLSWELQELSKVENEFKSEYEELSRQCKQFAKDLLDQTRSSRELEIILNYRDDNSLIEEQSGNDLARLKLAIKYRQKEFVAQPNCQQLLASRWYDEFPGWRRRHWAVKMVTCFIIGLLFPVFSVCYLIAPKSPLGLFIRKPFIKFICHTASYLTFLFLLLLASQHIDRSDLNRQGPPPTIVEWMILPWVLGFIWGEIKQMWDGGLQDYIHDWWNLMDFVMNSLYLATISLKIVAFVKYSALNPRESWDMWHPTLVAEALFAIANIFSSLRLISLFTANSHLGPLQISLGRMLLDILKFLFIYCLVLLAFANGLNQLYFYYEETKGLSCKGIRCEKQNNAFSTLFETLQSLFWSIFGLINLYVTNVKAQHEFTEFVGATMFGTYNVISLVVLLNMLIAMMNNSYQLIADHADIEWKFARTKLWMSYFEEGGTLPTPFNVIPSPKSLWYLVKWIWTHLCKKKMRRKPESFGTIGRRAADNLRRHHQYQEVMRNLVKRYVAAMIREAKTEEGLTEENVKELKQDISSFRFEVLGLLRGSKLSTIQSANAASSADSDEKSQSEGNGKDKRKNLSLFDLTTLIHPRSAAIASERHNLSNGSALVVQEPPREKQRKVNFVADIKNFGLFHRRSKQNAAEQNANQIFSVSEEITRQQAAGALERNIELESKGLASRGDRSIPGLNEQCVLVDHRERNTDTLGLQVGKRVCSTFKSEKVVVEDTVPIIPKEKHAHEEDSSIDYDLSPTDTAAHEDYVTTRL

Genome polyprotein = Genome polyprotein (dengue virus type 2, UniProt P29990); assay: flavivirus cap methylation enzyme inhibition – biochemical, confirmation dose response, primary screen (AID 588689); type: functional
Phospholipase A2 = Phospholipase A2 (Homo sapiens, UniProt P04054); type: functional;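 further: confirmatory dose-response counterscreen on phospholipase A2, testing hits that came from an ultra-high-throughput screen for ATG4B inhibitors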
[22] = inhibition of ARNT PAS-B/TACC3 complex formation – biochemical, AlphaScreen, cherry-picked samples, confirmation (AID 651703); type: functional, Homo sapiens;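 further: His-tagged ARNT PAS-B domain paired with GST-TACC3 E629A dimer coactivator fragment; potency of inhibitors that break up the complex and lower AlphaScreen signal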

Chain of Phospholipase A2 (P04054 whole entry, the tested form may be a part): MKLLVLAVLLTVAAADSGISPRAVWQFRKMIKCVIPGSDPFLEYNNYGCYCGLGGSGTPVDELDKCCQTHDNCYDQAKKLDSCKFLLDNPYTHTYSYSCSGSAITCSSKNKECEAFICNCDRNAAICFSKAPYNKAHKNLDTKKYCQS
Chain of Cysteine protease ATG4B (Q9Y4P1 whole entry): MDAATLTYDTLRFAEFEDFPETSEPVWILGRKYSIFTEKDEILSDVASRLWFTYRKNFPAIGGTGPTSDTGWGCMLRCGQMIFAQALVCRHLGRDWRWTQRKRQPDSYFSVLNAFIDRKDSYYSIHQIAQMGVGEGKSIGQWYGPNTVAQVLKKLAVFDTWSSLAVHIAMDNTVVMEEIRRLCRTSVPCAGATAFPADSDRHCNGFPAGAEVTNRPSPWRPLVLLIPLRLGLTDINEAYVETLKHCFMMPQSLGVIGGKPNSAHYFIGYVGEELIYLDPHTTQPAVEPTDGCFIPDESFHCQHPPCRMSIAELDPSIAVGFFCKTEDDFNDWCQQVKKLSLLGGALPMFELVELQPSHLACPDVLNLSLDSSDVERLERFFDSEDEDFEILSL
Chain of Voltage-gated inwardly rectifying potassium channel KCNH2 (Q12809 whole entry): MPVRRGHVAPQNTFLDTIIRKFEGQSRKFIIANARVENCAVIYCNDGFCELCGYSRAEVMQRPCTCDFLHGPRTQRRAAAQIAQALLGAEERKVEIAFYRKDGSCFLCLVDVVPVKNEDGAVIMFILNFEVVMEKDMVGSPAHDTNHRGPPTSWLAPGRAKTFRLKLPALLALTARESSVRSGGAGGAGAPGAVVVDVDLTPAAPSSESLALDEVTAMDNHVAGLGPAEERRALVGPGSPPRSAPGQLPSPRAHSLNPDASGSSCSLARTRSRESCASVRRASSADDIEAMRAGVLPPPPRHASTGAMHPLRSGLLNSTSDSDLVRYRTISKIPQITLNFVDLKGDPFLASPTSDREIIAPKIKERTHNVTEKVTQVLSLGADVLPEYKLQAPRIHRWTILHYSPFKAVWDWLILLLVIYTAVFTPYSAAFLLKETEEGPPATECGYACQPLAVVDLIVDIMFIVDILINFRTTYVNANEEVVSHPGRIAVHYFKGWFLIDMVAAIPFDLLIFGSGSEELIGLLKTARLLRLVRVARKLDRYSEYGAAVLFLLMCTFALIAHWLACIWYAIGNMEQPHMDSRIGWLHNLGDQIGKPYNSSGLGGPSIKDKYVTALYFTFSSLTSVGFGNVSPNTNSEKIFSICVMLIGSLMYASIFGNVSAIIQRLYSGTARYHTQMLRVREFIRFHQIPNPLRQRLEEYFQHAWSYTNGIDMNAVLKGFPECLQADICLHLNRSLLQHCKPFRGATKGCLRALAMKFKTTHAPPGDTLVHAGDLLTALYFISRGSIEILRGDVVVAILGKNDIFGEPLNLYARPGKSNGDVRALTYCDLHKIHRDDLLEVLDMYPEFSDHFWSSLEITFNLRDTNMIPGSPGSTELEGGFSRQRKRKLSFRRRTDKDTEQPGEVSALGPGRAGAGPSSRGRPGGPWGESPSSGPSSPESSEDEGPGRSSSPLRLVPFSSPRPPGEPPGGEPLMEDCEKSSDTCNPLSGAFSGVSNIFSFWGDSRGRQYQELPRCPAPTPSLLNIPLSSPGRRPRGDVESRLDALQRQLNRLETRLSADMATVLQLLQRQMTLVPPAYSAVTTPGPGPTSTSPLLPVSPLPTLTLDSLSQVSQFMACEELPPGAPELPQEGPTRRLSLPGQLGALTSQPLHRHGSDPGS
Chain of Beta-galactosidase (Q8VNN2 whole entry): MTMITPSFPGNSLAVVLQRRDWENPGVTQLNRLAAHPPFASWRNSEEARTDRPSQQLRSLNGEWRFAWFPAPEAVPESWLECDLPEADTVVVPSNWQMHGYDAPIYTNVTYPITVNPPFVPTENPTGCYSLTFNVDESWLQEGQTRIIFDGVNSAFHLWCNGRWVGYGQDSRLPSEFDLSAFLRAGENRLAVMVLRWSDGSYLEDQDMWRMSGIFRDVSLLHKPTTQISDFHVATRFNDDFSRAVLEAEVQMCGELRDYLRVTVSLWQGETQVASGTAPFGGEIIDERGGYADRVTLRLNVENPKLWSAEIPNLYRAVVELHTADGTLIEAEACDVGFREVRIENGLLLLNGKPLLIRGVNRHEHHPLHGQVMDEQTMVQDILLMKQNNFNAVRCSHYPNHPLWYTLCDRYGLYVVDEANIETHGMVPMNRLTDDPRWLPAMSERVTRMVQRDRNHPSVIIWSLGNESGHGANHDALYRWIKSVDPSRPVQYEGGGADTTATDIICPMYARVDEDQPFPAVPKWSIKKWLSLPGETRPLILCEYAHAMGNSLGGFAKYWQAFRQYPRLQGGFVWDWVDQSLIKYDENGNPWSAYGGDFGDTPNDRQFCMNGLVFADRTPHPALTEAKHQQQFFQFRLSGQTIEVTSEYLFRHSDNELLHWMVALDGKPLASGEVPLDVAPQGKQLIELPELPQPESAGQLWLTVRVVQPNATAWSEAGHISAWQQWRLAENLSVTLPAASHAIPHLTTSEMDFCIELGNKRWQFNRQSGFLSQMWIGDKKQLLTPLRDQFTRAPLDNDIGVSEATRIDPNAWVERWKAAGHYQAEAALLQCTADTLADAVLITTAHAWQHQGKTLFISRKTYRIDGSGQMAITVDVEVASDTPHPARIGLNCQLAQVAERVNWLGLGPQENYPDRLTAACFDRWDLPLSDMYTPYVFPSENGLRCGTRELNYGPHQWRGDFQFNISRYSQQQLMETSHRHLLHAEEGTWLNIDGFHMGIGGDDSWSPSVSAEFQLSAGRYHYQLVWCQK
Chain of CAAX prenyl protease 2 (Homo sapiens, UniProt Q9Y256) (Q9Y256 whole entry): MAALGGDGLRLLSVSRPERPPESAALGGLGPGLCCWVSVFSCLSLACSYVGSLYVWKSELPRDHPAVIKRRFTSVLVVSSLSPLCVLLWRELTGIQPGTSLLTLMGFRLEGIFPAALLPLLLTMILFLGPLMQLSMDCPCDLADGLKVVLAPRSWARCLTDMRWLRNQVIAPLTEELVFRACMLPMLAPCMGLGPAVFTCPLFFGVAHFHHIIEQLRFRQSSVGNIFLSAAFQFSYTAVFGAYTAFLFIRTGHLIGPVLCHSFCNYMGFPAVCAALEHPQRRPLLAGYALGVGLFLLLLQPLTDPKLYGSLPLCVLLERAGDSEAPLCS
Chain of Trypsin (P00761 whole entry): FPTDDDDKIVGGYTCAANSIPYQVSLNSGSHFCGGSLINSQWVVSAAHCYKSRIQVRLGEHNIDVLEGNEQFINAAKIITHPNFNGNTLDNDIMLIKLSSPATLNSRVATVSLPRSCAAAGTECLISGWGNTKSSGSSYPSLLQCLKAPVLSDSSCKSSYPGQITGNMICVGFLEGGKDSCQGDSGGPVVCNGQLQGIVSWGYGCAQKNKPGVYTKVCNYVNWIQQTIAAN
Chain of Genome polyprotein (P29990 2492-3391 limits assumed): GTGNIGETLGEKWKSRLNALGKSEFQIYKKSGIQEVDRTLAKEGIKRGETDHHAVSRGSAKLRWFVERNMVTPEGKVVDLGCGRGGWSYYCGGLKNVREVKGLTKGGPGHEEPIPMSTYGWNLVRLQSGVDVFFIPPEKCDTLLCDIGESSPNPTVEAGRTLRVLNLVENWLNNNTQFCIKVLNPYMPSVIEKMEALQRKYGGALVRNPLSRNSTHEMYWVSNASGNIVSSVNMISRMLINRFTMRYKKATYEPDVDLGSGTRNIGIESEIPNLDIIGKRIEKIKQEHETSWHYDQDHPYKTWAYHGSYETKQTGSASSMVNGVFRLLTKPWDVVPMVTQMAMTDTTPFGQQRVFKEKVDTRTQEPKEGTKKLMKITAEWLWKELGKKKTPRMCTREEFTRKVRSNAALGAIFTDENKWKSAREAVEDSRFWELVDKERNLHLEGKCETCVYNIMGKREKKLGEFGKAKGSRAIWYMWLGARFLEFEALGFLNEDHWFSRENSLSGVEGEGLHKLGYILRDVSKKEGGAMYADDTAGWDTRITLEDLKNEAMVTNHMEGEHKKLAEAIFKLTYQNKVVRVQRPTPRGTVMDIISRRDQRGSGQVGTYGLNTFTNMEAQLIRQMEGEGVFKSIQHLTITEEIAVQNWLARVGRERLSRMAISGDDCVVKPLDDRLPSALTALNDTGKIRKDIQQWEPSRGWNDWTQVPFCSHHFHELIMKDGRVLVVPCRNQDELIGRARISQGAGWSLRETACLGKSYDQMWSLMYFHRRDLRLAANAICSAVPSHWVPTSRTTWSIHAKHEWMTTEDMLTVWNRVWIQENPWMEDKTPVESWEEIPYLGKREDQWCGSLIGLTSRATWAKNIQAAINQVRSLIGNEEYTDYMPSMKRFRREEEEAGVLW

CC(=O)c1csc(COc2ccc(Cl)cc2)n1
IC50 (HEK293 [1]): > 67.6 µM (inactive) | IC50 [2]: > 67.6 µM (inactive)

O=C(CCc1ccccc1)NC(c1cccs1)c1cc(Cl)c2cccnc2c1O (stereo not drawn)
IC50 [3]: 1.78 µM (active) | AC50 [4]: 10.2 µM (active) | EC50 [5]: 1.61 µM (active) | EC50 (cells [6]): 9.12 µM (active) | EC50 [7]: 4.12 µM (inconclusive) | EC50 (cells [8]): > 350 µM (not active) | EC50 [9]: 9.65 µM (active) | EC50 [10]: 0.536 µM (active) | AC50 [11]: 16.9 µM (active) | AC50 (HEK293 [12]): 9.35 µM (active) | EC50 [13]: 0.219 µM (active) | IC50 [14]: 1.77 µM (active)

COc1ccc(C(=O)CCNc2ccc(F)cc2)cc1
AC50 (A-375 [15]): > 35 µM (active) | AC50 (A-375 [16]): > 35 µM (active) | EC50 (cells [6]): > 350 µM (not active)

CCCCCCCCCCCCCCC[C@H](O)[C@H](N)CO
AC50 [17]: 35.5 µM (inconclusive)

CCOC(=O)c1cc(-c2ccc(OC)cc2)[nH]n1
AC50 (A-375 [15]): > 35 µM (active) | AC50 (A-375 [16]): > 35 µM (active)

COc1ccccc1CNC(=O)c1ccccc1N
AC50 (Trypsin): 6.1 µM (active) | AC50 (CAAX prenyl protease 2 [18]): 4.31 µM (active) | AC50 (CAAX prenyl protease 2 [19]): 6.36 µM (active)

O=C(CNC(=O)c1ccc(Br)o1)OCC(=O)c1cccc([N+](=O)[O-])c1
EC50 (Beta-galactosidase): > 40 µM (inactive) | IC50 [20]: 27.3 µM (not active)

CC/C=C/C/C=C/C/C=C/CCCCCCCC(=O)OCC
AC50 [17]: 28.2 µM (inconclusive)

Cc1ccc(/C=C2\SC(=S)N(C(Cc3ccccc3)C(=O)O)C2=O)cc1 (stereo not drawn)
IC50 (Cysteine protease ATG4B): 9.14 µM (active) | EC50 [21]: 5.96 µM (active) | IC50 (Genome polyprotein): 39.1 µM (active) | IC50 (Phospholipase A2): 10.6 µM (active)

O=C(COc1ccc2ccc(=O)oc2c1)N1CCC(C(=O)O)(c2ccccc2)CC1
AC50 (CAAX prenyl protease 2 [18]): 98.6 µM (active)

O=C(O)Cc1nn(Cc2ccc(Cl)cc2)c(=O)c2ccccc12
IC50 (HEK293 [1]): > 67.5 µM (inactive) | IC50 [2]: > 67.5 µM (inactive)

CCCCCCOc1ccc(N2C(=O)CC(SC(=N)N/N=C(\C)c3cccs3)C2=O)cc1 (stereo not drawn)
IC50 (Cysteine protease ATG4B): 9.46 µM (active) | IC50 (Phospholipase A2): 5.58 µM (active)

Cc1ccc(/C=N/NC(=S)N2CCOCC2)cc1
EC50 (Beta-galactosidase): > 40 µM (inactive) | IC50 [20]: 8.6 µM (active) | AC50 [22]: 112 µM (active)
